Source: publication PMC12454639, “Direct disassembly of α-syn preformed fibrils into α-syn monomers by an all-D-peptide” (NPJ Parkinson's Disease, 2025)
Square brackets hold non-standard residues; d marks the D form. Peptide text beside a SMILES is read from it.

Tested on: α-synA53T–YFP (HEK293T cells)
Assay: Seeded intracellular aggregation in α-synA53T–YFP cells
Type: cell-based, human
Conditions: day 3; for aggregate-positive cells: transfected, then 30 nM small α-syn PFF seeds
Description: Fig. 5 SVD-1a inhibits seeded α-syn aggregation in cells. To validate the inhibitory effect of SVD-1a in cells, we used the α-synA53T–YFP cell system, which stably expresses human α-syn with the familial A53T mutation fused to YFP in HEK293T cells and enables fluorescence-based detection of aggregates that show up as highly fluorescent spots within the cells, clearly above background, intracellularly after seeding with small α-syn PFF seeds. In order to avoid interference of the peptide with the uptake of small α-syn PFF seeds, we performed a two-step transfection starting with a first transfection of the peptide and a second transfection with PFFs. […] To quantify the number of cells with aggregates in our images and to avoid experimental bias, we used a fully automated algorithm for image analysis. […] One asterisk denotes p values < 0.05 and three asterisks a p value < 0.001. Error bars indicate standard deviation. […] Treatment with increasing concentrations of SVD-1a, here imaged at 25 µM, led to a concentration-dependent reduction in the number of cells with aggregates (H-J). Panels B, E, and H show nuclei stained with Hoechst 33342. Panels C, F, and I show αSynA53T–YFP fluorescence. Panels D, G, and J show merged images. The scale bar in J represents 100 µm and applies to all panels. The viability of the cells was not reduced by transfection with seeds or in SVD-1a, as shown in Supplementary Fig. 15. Confirmation that highly fluorescent aggregates contain α-syn is shown in Supplementary Fig. 14 by co-immunostaining with syn-211 antibody, anti-α-syn (phospho S129) antibody and 5G4 antibody.
A construct encoding full-length A53T-mutated human α-syn fused with YFP at the C-terminus was synthesized and introduced into the pMK–RQ expression vector (GeneArt; Thermo Fisher Scientific, USA). The α-synA53T–YFP construct was subcloned into the pIRESpuro3 vector (Clontech; Takara Bio, JPN) using NheI (5′) and NotI (3′) restriction sites. HEK293T cells (American Type Culture Collection) were cultured in high-glucose Dulbecco’s modified Eagle’s medium (DMEM; Sigma-Aldrich, USA) supplemented with 10% fetal calf serum (Sigma-Aldrich, USA), and 50 units/ml penicillin as well as 50 μg/ml streptomycin (Sigma-Aldrich, USA). Cells were cultured in a humidified atmosphere of 5% CO2 at 37 °C. Cells plated in DMEM were transfected using Lipofectamine 2000 (Invitrogen; Thermo Fisher Scientific, USA). Stable cells were selected in DMEM containing 1 μg/ml puromycin (EMD Millipore, USA). Monoclonal lines were generated by fluorescence-activated cell sorting of a polyclonal cell population in 96-well plates using a MoFlo XDP cell sorter (Beckman Coulter, USA). Finally, the clonal cell line B5 was selected from among 24 clonal cell lines and is referred to as αSynA53T–YFP cells. Peptides were incubated with 1.5% Lipofectamine 2000 in OptiMEM for 2 h at room temperature. […] On day 3 the cells were imaged with an IN Cell Analyzer 6500HS System (Cytiva, USA) using the blue and green fluorescence channel, and analyzed using IN Carta Image Analysis Software (Cytiva, USA) after an algorithm was established to identify intracellular aggregates in living cells. For each condition, we used four wells and took 16 images per well, which were analyzed by a fully automated algorithm to avoid bias. […]

Q: How did the aggregate-positive cells (5 µM peptide) turn out when `CC[C@@H](C)[C@@H](NC(=O)[C@@H](Cc1c[nH]cn1)NC(=O)[C@@H](CCC(=O)O)NC(=O)[C@@H](CCC(N)=O)NC(=O)[C@@H](Cc1c[nH]c2ccccc12)NC(=O)[C@@H](Cc1ccc(O)cc1)NC(=O)[C@H](NC(=O)[C@@H](CCC(=O)O)NC(=O)[C@@H](Cc1c[nH]cn1)NC(=O)[C@H](NC(=O)[C@H]1CCCN1C(=O)[C@@H](CC(C)C)NC(=O)[C@H](N)CCCNC(=N)N)[C@H](C)O)[C@H](C)O)C(=O)N[C@H](Cc1c[nH]c2ccccc12)C(=O)N[C@H](Cc1c[nH]cn1)C(=O)N[C@H](C)C(=O)N[C@H](CCCNC(=N)N)C(=O)N[C@H](CCCNC(=N)N)C(=O)N[C@H](CCCNC(=N)N)C(=O)N[C@H](CCCNC(=N)N)C(=O)N[C@H](CCCNC(=N)N)C(N)=O` [SVD-1a] (H-[dR][dL][dP][dT][dH][dE][dT][dY][dW][dQ][dE][dH][dI][dW][dH][dA][dR][dR][dR][dR][dR]-NH2) was run?
A: 64%

Q: And the aggregate-positive cells (25 µM peptide)?
A: 57%

Q: What about the “inhibition of intracellular seeded α-syn aggregation” value (peptide transfection, then 30 nM PFF seeds) of the same compound?
A: inhibited α-syn aggregation in αSynA53T–YFP cells in a dose-dependent manner
